# Test results reported in patent US12128015B2, “APE/REF1 inhibitors for the treatment of cancer” (Chapman University, priority 2021, dated 2024).
# Entries after “also recorded” stand apart in the source; their conditions may differ. Like-named read-outs stand apart in the source and are kept apart here.
# Key:
# HT1080 cells = details: cited from earlier work
# [1] = test system: Hermes 4A melanoblast cells; test: MTT cell viability assay, Hermes 4A melanoblast cells; assay type: cell-based, human; details: 72 h treatment
# Text: (§1) (MTT) metabolized by alive cells.
# [2] = test system: A375 metastatic melanoma xenograft; test: In vivo xenograft melanoma (A375 cells in nude mice)
# Protocol: FIG. 4. Compound 2 inhibited the tumor growth of human melanoma in vivo. Metastatic melanoma A375 cells were injected into male nude mice subcutaneously on the flank. Compound 2 was administered i.p. daily at the dose of 5 mg/kg. The growth of the tumor was measured daily, and tumor volume was measured by digital calipers and determined using the formula (mm^3)=[L×(W2)]/2. Tumor growth was presented as a fold of increase in size (mean±SD). *, p<0.05 compared to control (N=7; Compound 2 group, N=5).
# The Institutional Animal Care and Use Committee approved all the animal procedures at Chapman University (IACUC #2020-1131). Male nude mice (Nu/Nu) were purchased from Charles River and were housed and maintained in the Chapman University vivarium under pathogen-free conditions. Human A375 metastatic melanoma cells were injected subcutaneously into the mouse's flank (1×10^6 cells per mouse). Three days-post tumor cell injection, mice were randomized into different groups. The treatment group was injected with compound 2 (5 mg/kg/day, i.p.) for 21 days. The growth of the tumors was monitored three times a week and measured using digital Vernier calipers. The size of the tumors was calculated as tumor volume (mm^3)=[L×(W2)]/2. The mice were sacrificed at the end of the experiment.
# (§2) Given the limited water solubility, lead compound 2 (in DMSO) was further diluted in normal saline, the drug suspension, and sonicated at room temperature for 15 min. before injection to nude mice. […] The drug suspension was made fresh daily and injected into mice immediately after the compounding.
# [3] = HPLC analysis of the drug suspension after compounding; assay type: physicochemical; details: DMSO solution diluted in normal saline, sonicated 15 min at room temperature
# Protocol: as §2
# [4] = test system: Hermes 3A melanoblast cells; test: MTT cell viability assay, Hermes 3A melanoblast cells; assay type: cell-based, human; details: 72 h treatment
# Text: as §1
# [5] = test system: human melanoma A375 and SK-Mel-28 cells; test: MTT cytotoxicity in human melanoma A375 and SK-Mel-28 cells (Table 1); assay type: cell-based; details: for IC50: read-out: IC50 (50% inhibition of cell survival), MTT assay; for anti-melanoma activity (MTT): in words
# Text: (§3) All the cells were passaged once reaching 70-90% confluence.
# as §1
# AP-1 transactivation = test: Luciferase assay to determine AP-1 transactivation activities in A375 cells; assay type: cell-based, human; details: for inhibition of H2O2-activated AP-1 transactivation: compound 10 μM
# Text: FIG. 3. Inhibition of AP-1 transcriptional activation in human melanoma A375 cells by compound 2. A375 cells were transfected with an AP-1 luciferase reporter plasmid. […] After treatments, the cells were harvested to determine the luciferase activity, expressed as a fold of control without any treatment. The results normalized by cell numbers represent means±S.D of triplicates. *, p<0.05 compared to control; **, p<0.05 compared to H2O2-treatment.
# 3×AP1pGL3 (3×AP-1 in pGL3-basic; Addgene plasmid #40342), which contains three canonical AP-1 binding sites (TGACTCA) upstream of a minimal promoter fragment containing a TATA box in the luciferase reporter plasmid pGL3-basic. 3×AP1pGL3 was transfected to human melanoma A375 cells using Lipofectamine 2000 following the manufacturer's instructions (Invitrogen). […]
# After different treatments, the cells were rinsed twice with phosphate-buffered saline (PBS). Cells were then scraped from the plates in PBS and pelleted for 4 min at 4° C. in a microcentrifuge at 12,000 rpm. Cell pellets were resuspended in 100 μL luciferase lysis buffer for luciferase assay as described (Promega). Luciferase activity measured in relative light units reflects the AP-1 transcription rate and was detected by a SpectraMax M5 UV VIZ Plate Reader. Cell count was conducted for normalization. All the samples were studied in duplicate, and readings were taken in triplicate. Each experiment was repeated at least two times.
# [6] = test system: Hermes 1 melanoblast cells; details: 72 h
# A375 melanoma cells = test: MTT cell viability assay, A375 melanoma cells; assay type: cell-based, human; details: for cell viability: 1 μM, A375 cells (FIG. 2C), control = vehicle 0.1% DMSO
# Text: as §3, §1
# Sk-Mel-28 melanoma cells = details: read-out: IC50, cell viability; Sk-Mel-28 cells, MTT, 72 h
# Protocol: Human malignant melanoma cells (A375, CRL-1619™; Sk-Mel-28, HTB-72™) were purchased from ATCC®. Cells were cultured in Dulbecco's Modified Eagle Medium (DMEM) (ATCC #30-2002) or Eagles' Minimum Essential Medium (EMEM) (ATCC #30-2003) supplemented with 10% fetal bovine serum (FBS) (ATCC #30-2020) at 37° C. in 5% CO2 incubator. All the cells were passaged once reaching 70-90% confluence.
# [7] = Water solubility: drug precipitation in the media; assay type: physicochemical
# [8] = test system: human breast cancer cells; details: collective cell migration; chemo-invasion and colony formation with docetaxel; cited from earlier work
# [9] = Phase I trial, cited from earlier work
# melanoma cell lines = test: Toxicity of PNRI-299 in the inventors' tested melanoma cell lines; assay type: cell-based
# [10] = 72 h, human melanoma A375 and SK-Mel-28 cells (compound 11: average of the two lines)
smiles,measurement,setting,value
O=C(O)c1cc2cccc([N+](=O)[O-])c2[nH]1 [CRT0044876],concentration up to which no toxicity was seen,"HT1080 cells; HT1080 cells, CRT0044876 alone",> 400 µM
same,concentration at which synergistic enhancement of methyl methanesulphonate cytotoxicity was evident,HT1080 cells,200 µM
"O=C(/C=C/c1ccccc1)NCCCCCCCCCCCCNC(=O)/C=C/c1ccccc1 [Compound 2, (2E,2′E)-N,N′-(Dodecane-1,12-diyl)bis(3-phenylacrylamide)]",cytotoxicity,[1],no significant cytotoxicity
same,tumor size,"[2]; 5 mg/kg i.p. daily, after 21-day treatment, nude mice",44.7 % of control
same,systemic toxicity,"[2]; 5 mg/kg i.p. daily, nude mice",without producing any apparent systemic toxicities; also recorded: no significant systemic toxicity observed
same,tumor growth inhibition compared to the control group,"[2]; 5 mg/kg i.p., xenograft mouse model",44.7%
same,chemical stability after compounding,[3],no evidence of chemical structural change after compounding
same,cytotoxicity,[4],no significant cytotoxicity
same,dose dependence of cytotoxicity,"[5]; MTT, 72 h",Cytotoxicity is not dose-
same,H2O2-activated AP-1 activity (luciferase),"AP-1 transactivation; compound 0.5 μM, H2O2 100 μM, 48 h, H2O2 alone 2.3-fold of control",95.7 % of control
same,inhibition of basal AP-1 dependent transcription,AP-1 transactivation; without H2O2,did not display any inhibition
same,cytotoxicity,[6]; human,"more sensitive to compound 2, but the cytotoxicity was not elevated with increasing the concentrations"
O=C(/C=C/c1ccc(O)cc1)NCCCCCCCCCCCCNC(=O)/C=C/c1ccc(O)cc1 [Compound 4],IC50,[5]; [10],> 10000 nM
same,anti-melanoma activity (MTT),[5],significant loss of anti-tumor activity compared to compound 2
"O=C(/C=C/c1ccc(O)cc1)NCCCCCCNC(=O)/C=C/c1ccc(O)cc1 [Compound 5, (2E,2′E)-N,N′-(Hexane-1,6-diyl)bis(3-(4-hydroxyphenyl)acrylamide)]",IC50,"[5]; Homo sapiens, 72 h",> 50000 nM
same,anti-melanoma activity (MTT),[5],loss of anti-melanoma activity compared to compound 2
"O=C(/C=C/c1cccc(O)c1)NCCCCCCCCCCCCNC(=O)/C=C/c1cccc(O)c1 [Compound 7, (2E,2′E)-N,N′-(dodecane-1,12-diyl)bis(3-(3-hydroxyphenyl)acrylamide)]",IC50,"[5]; Homo sapiens, 72 h",> 10000 nM
same,anti-melanoma activity (MTT),[5],significant loss of anti-tumor activity compared to compound 2
"NCCCCCCCCCCCCNC(=O)/C=C/c1cccc(O)c1 [Compound 8, (E)-N-(12-Aminododecyl)-3-(3-hydroxyphenyl) acrylamide]",IC50,"[5]; Homo sapiens, 72 h",> 25000 nM
"O=C(/C=C/c1ccccc1)NCCCCCCCCCCCCNC(=O)/C=C/c1cccc(O)c1 [Compound 9, (E)-N-(12-Cinnamamidododecyl)-3-(3-hydroxyphenyl) acrylamide]",IC50,"[5]; Homo sapiens, 72 h",> 10000 nM
same,anti-melanoma activity (MTT),[5],poor anti-melanoma activity
"NCCCCCCCCCCCCNC(=O)C=Cc1ccccc1 [Compound 10, N-(12-Aminododecyl)cinnamamide]",IC50,"[5]; Homo sapiens, 72 h",> 25000 nM
"O=C(C=Cc1ccccc1)NCCCCCCCCCCCCNC(=O)/C=C/c1ccc(O)cc1 [Compound 11, (E)-N-(12-Cinnamamidododecyl)-3-(4-hydroxyphenyl) acrylamide]",cell viability,A375 melanoma cells,19 % of control
same,IC50,"A375 melanoma cells; A375 cells, MTT, 72 h",88 nM
same,IC50,Sk-Mel-28 melanoma cells,70 nM
same,precipitation concentration relative to compound 2,[7],approximately 8 folds
same,water solubility and stability,[7]; compared to compound 2,improved water solubility and stability compared to compound 2
same,concentration at which drug precipitation was evident,[7]; in the media,-20 µM
same,IC50,[5]; [10],79 ± 13 nM
same,anti-melanoma activity (MTT),[5],potent cytotoxic effect
same,inhibition of H2O2-activated AP-1 transactivation,"AP-1 transactivation; H2O2 100 μM, 48 h",failed to inhibit
same,IC50,"[6]; read-out: IC50, cell viability, Hermes 1 melanoblast cells, MTT",274 nM
"O=C(/C=C/c1ccccc1)NCCCCCCNC(=O)/C=C/c1ccccc1 [Compound 12, (2E,2′E)-N,N′-(hexane-1,6-diyl)bis(3-phenylacrylamide)]",IC50,"[5]; Homo sapiens, 72 h",> 10000 nM
CCCCCCCCC/C(=C\C1=C(C)C(=O)C(OC)=C(OC)C1=O)C(=O)O [Compound E3330],cell viability,A375 melanoma cells,102.6 % of control
same,concentration at which inhibitory activity was evident,[8],50 µM
same,patients with disease stabilization for ≥4 cycles,[9]; cancer patients,six of nineteen
same,"duration of treatment with stable disease, one melanoma patient",[9],245 days
same,inhibition of H2O2-activated AP-1 transactivation,"AP-1 transactivation; H2O2 100 μM, 48 h","only reduced the AP-1 activity marginally, which was not statistically significant"
N#Cc1cccc(-n2c(=O)n3n(c2=O)C(C(=O)NCc2ccccc2)=CC(=O)C3)c1 [PNRI-299],concentration up to which neither toxicity nor synergistic effects were observed,melanoma cell lines,> 100 µM
